For series [1], the system named is human fibroblast (HDFa) cell cultures. As to the kind of experiment: Nuclear abnormality / micronucleus analysis by Hoechst 33258 staining in HDFa cells. The format is cell-based. As to conditions: 24 h, 125 μg/mL. The protocol:
(§1) The human fibroblast cell line (ATCC® PCS-201-012™ Manassas, VA, USA) was propagated in DMEM culture medium enriched with a 1% mixture of penicillin/streptomycin antibiotics and 10% fetal bovine serum (FBS) and maintained in an atmosphere containing 5% CO2 at a temperature of 37 °C until they reached full confluence. To identify nuclei alterations, Hoechst 33258 fluorescent dye was employed. […] Following the treatment period, the cells were stabilized using 4% paraformaldehyde at a cool temperature of 4 °C for 30 min. The cells were then rinsed with PBS and exposed to 1 µM of the Hoechst 33258 dye for a brief duration of 5 min [15]. After the staining process, the cells were examined and imaged using a Leica® DM IL LED (Leica Microsystems, Wetzlar, DE) fluorescent microscope.
Figure 4 Analysis of the genotoxic properties of synthesized memantine derivatives (MP1–4) in cultured human fibroblast cells (HDFa) using Hoechst 33258 fluorescent staining of cell nuclei. (A) MP1, (B) MP2, (C), MP3 and (D) MP4.

In series [2] the test system is bEnd.3 cells / SH-SY5Y disease model. In words: In vitro BBB permeability test, transwell bEnd.3 monolayer over SH-SY5Y disease model, viability readout. The format is cell-based. As to conditions: carrier 0.1 mg/mL loaded with 47 µg/mL vs non-loaded 47 µg/mL, 24 h. As for the experimental part: In vitro BBB models were created using a transwell culture system for BBB permeability analysis. Initially, bEnd.3 cells were seeded inside the membrane of the plate at a starting density of 1 × 10^5 cells/well and cultured for about a week in DMEM growth medium supplemented with 10% fetal bovine serum. Subsequently, the upper compartments containing bEnd.3 monolayers were transferred to plates containing SH-SY5Y cells coated at the bottom of the lower compartments. Then, carrier particles were added to the apical upper chambers of the BBB models at a final concentration of 0.1 mg/mL. Approximately 24 h after incubation, viability analyses were conducted on the SH-SY5Y disease model formed in the lower layer to determine BBB permeability capacities. A schematic diagram of the method is shown below (Figure 2). Prior to starting the experimental procedures, the bEnd.3 cells were cultured until 90–100% confluency was achieved, as this confluency level is necessary for tight junction formation and optimal barrier properties. The integrity of the cell monolayer was then evaluated under an inverted microscope to confirm confluence and uniform cell distribution, ensuring the reliability of the in vitro BBB model.
In vitro BBB permeability analyses were conducted by establishing in vitro transwell BBB models, within which the effects of drug-loaded MP1–4 were studied. […]

A short description of series [3]: Drug loading (encapsulation efficiency) of niosomes, UV at 236 nm after centrifugal filtration. The format is physicochemical. Particulars: Span60:cholesterol 2:1, drug 1 mg/mL. As for the experimental part:
The efficiency of MP1–4 encapsulation within the niosomes was evaluated by quantifying the unencapsulated MP1–4. This was achieved by centrifuging the niosomal mixtures at 4 °C for 20 min at a speed of 4000 rpm, utilizing an Amicon Ultra centrifuge filter unit (Millipore Merck, Darmstadt, DE). The optical density of the supernatant containing free MP1–4 was measured at a wavelength of 236 nm with a UV–Vis spectrophotometer (Eppendorf® 580R centrifuge, Hamburg, DE). By determining the concentration of the free drug in the supernatant, we were able to calculate the unknown amount of encapsulated drug. The encapsulation efficiency percentage was then computed based on the initial molecule concentration (Ci) used in the niosome preparation versus the concentration found post-centrifugation (Cf), as in the following equation:% Loading capacity = [(Ci − Cf)/Ci] × 100 (1)
The loading capacities of the synthesized memantine derivative compounds in the niosomal drug delivery system were examined in detail. In this study, loading efficiency was determined by centrifuging niosomal formulations using an Amicon Ultra centrifuge filter device (Millipore Merck, Burlington, MA, USA) at 4000 rpm for 20 min at 4 °C. The amount of free drug remaining was recorded using a UV–Vis spectrophotometer (Eppendorf® 580R centrifuge, Hamburg, DE). […] However, the loading capacity of the memantine derivative MP2 was determined to be 53%, which is below the desired capacity.

For series [4], the system named is differentiated SH-SY5Y cells exposed to amyloid beta 1−42 peptide. In words: Neuroprotection in the in vitro AD model (differentiated SH-SY5Y exposed to amyloid beta 1-42), MTT. The class given is cell-based, human. As to conditions: for concentration range of optimal neuroprotective activity: AD model, differentiated neuronal cultures; for increase of cell viability versus amyloid beta only control: derivative loaded into niosomal drug delivery system, 47 µg/mL, 24 h; for cell viability versus amyloid beta only control (neuroprotective effect): free compound 47 µg/mL, 10 µM amyloid beta 1−42. As for the experimental part:
(§2) The SH-SY5Y neuroblastoma cell line, frequently used as an in vitro model of Alzheimer’s disease, has been cultured to transform into mature neuron-like structures through differentiation with retinoic acid (RA). For this purpose, the SH-SY5Y neuroblastoma cell line was grown in a DMEM:F12 nutrient medium environment with 10% fetal bovine serum (FBS) growth factor, 1% Penicillin/streptomycin, and 5% CO2 at 37 °C. The nutrient medium was refreshed every three days, with half the volume changed. Cells were subcultured after treatment with trypsin/EDTA for 5 min. To differentiate SH-SY5Y cells, the medium containing 10 µM RA (DMEM:F12 + 15% FBS) was added. Five days after the addition of RA, the cells were washed three times with PBS and incubated in DMEM:F12. The differentiation of the cells was determined by cell cycle analysis using a flow cytometry system. […] Converted cell cultures were used as a negative control, and cell cultures with only amyloid beta were used as a positive control without adding the synthesized molecules. The viability rates in the in vitro AD model that we intended to create were analyzed with MTT cytotoxicity tests.
Differentiated SH-SY5Y cells were seeded into 96-well plates, with each well containing 100 μL of culture medium with 2 × 10^4 cells. […] At the end of the incubation period, 10 μL of MTT mixture was added to each well for MTT analysis. The mixture was gently stirred using a circular mixer for 1 min and then incubated in a CO2 incubator at 37 °C for 3–4 h. […] The culture medium was carefully aspirated from each compartment without disturbing the cell layer. Alternatively, before aspiration, the plate was centrifuged at 400× g for 10 min to settle non-adherent cells. Then, 100 μL of crystal solvent solution (DMSO) was added to each compartment, and the absorbance of each sample was measured at 570 nm using a microplate reader.
This peptide is instrumental in AD pathology and serves as a pertinent stressor for assessing the neuroprotective efficacy of potential therapeutic agents.
In the conducted in vitro studies, the neuroprotective effects of memantine derivatives encapsulated within a nanosomal drug delivery system were evaluated using the SH-SY5Y neuroblastoma cell line as a model for AD. The differentiated neuronal cultures were treated with memantine derivatives which were loaded into the niosomal drug delivery systems at a uniform concentration of 47 µg/mL across three independent experimental repeats.

The test system of series [5] is differentiated SH-SY5Y cells. In words: MTT cell viability test in differentiated SH-SY5Y cell cultures. Particulars: for cell viability at the highest concentration: 500 µg/mL; for IC50: Homo sapiens, read-out: IC50 (concentration required to achieve 50% cell viability), MTT. The format is cell-based, human. Background: Tetrazolium assays rely on reduction of a dye to a coloured formazan, in cell work by metabolically active cells.
Method: Differentiated SH-SY5Y cells were seeded into 96-well plates, with each well containing 100 μL of culture medium with 2 × 10^4 cells. […] At the end of the incubation period, 10 μL of MTT mixture was added to each well for MTT analysis. The mixture was gently stirred using a circular mixer for 1 min and then incubated in a CO2 incubator at 37 °C for 3–4 h. […] The culture medium was carefully aspirated from each compartment without disturbing the cell layer. Alternatively, before aspiration, the plate was centrifuged at 400× g for 10 min to settle non-adherent cells. Then, 100 μL of crystal solvent solution (DMSO) was added to each compartment, and the absorbance of each sample was measured at 570 nm using a microplate reader [18].

Series [6] is described as follows: In vitro drug release from niosomes (dialysis membrane, PBS-SDS, 37 °C). The format is physicochemical. As to conditions: for Higuchi coefficient (kH): release from niosomal carriers, Higuchi model. As for the experimental part:
To investigate the drug’s release profile from the niosomes, an in vitro release study was performed. For the release study, we used loading rates calculated by a drug loading study. A 2 mL aliquot of the optimized niosomal formulation was enclosed within a dialysis membrane (with a 12 kDa molecular weight cut-off) and incubated for 72 h at 37 °C. This incubation occurred in a stirring environment within 50 mL of a release solution composed of phosphate-buffered saline with 0.5% sodium dodecyl sulfate (PBS-SDS) by w/v. Samples of 1 mL were systematically withdrawn at specific intervals (1, 2, 4, 8, and 24 h) from the release medium, with each withdrawal immediately compensated for by an equivalent volume of fresh release medium. The optical density of these samples was measured at 236 nm using a spectrophotometer. From these measurements, the quantity of memantine released was calculated, and the release percentages were reported as a proportion of the total drug release.
Drug release capacities with MP1–4 were determined using the niosomal release systems generated. […] This feature offers an important advantage in terms of controlled drug release. The drug release study was carried out by measuring the absorbance using a spectrophotometer on samples taken at specific time intervals (1, 2, 4, 8, and 24 h). These measurements were carried out at the max peak of the drugs, and the data obtained were used to determine the amount of memantine derivative drug released. The results present the percentages of the released content as a percentage of total release. […] It was also concluded that a slow and proportional release occurred over the indicated time period, indicating the potential for controlled drug release (Figure 6).

Series [7] concerns human fibroblast cells (HDFa). As to the kind of experiment: MTT cell viability assay of MP1–4 in cultured human fibroblast cells (HDFa). Particulars: at each concentration applied. The format is cell-based. The protocol: as §1
The human fibroblast cell line HDFa was cultured and tested for toxicity with 4 different memantine derivatives in 48-well plates. The experiments, conducted in triplicate, included both treated and untreated (negative control) cell cultures. Post-treatment, the cells were incubated with an MTT mixture to assess cell viability, followed by the addition of a crystal solvent solution (DMSO) to dissolve formazan crystals formed in viable cells. The absorbance of each sample was measured to evaluate the cytotoxic effects of the memantine derivatives on the fibroblast cells. […]

Series [8] concerns SH-SY5Y cells. As to the kind of experiment: Cell cycle distribution of SH-SY5Y cells by flow cytometry after retinoic acid differentiation. The format is cell-based, human. As to conditions: all-trans retinoic acid 10 µM, 11 days. The protocol: as §2
To confirm successful differentiation, flow cytometry was utilized to analyze the cell cycle distribution within the cultures.
(In general: Flow cytometry measures light scatter and fluorescence of single cells or particles in a stream.)

Each structure is given as a SMILES string. Values after ≈ are worked out from the molar mass of the structure shown. Marks after values point to notes of the source that are not given here. Where only a bound is given, the exact number is not on record here.

Regarding `CCCC(CCC)C(=O)NC12CC3CC(C)(CC(C)(C3)C1)C2` [MP1], in series [1], the “Mean NA/1000 Cells ± SD” value is 0.013 ± 0.001 ^a, the “Nuclear Abnormalities (NA) Total Lobbed” value is listed as 3, the “Nuclear Abnormalities (NA) Total MN” value is reported as 5 and the “Nuclear Abnormalities (NA) Total Notched” value is on record as 5. Also, the “effect on cell viability / neuroprotection of niosome-loaded versus non-loaded derivative” value in series [2] is “higher effect on cell viability and a significant increase in neuroprotective properties”. For the same compound, the “Drug Loading (%) / encapsulation efficiency” value in series [3] is no less than 85%. Also, in series [4], the “concentration range of optimal neuroprotective activity” value was 15.6 to 62.5 µg/mL, the “increase of cell viability versus amyloid beta only control” value (“increase” below) was “approximately 40%” and the “cell viability versus amyloid beta only control (neuroprotective effect)” value is given as “significantly enhanced cell viability”. Further, in series [5], the “cell viability at the highest concentration” value is recorded as “relatively higher cell viability” and the IC50 was determined as 5620 mg/L (≈ 18400 µM). Besides, in series [6], the “Higuchi coefficient (kH)” value is 10.36. In series [6] (sampling at 1, 2, 4, 8 and 24 h), the “drug release behaviour from niosomal release systems” value is reported as “most optimal drug release”.

For `CC12CC3CC(C)(C1)CC(NC(=O)CCCc1ccccc1)(C3)C2` [MP2], in series [1], the “Mean NA/1000 Cells ± SD” value is recorded as 0.012 ± 0.002 ^a, the “Nuclear Abnormalities (NA) Total Lobbed” value is on record as 5, the “Nuclear Abnormalities (NA) Total MN” value came to 4 and the “Nuclear Abnormalities (NA) Total Notched” value came out at 3. Moreover, the “Drug Loading (%) / encapsulation efficiency” value in series [3] is listed as 53%. In series [4], the “concentration range of optimal neuroprotective activity” value was 31.25 to 125 µg/mL, the “increase” value is “approximately 40%” and the “cell viability versus amyloid beta only control (neuroprotective effect)” value is given as “significantly enhanced cell viability”. Besides, in series [5], the “cell viability at the highest concentration” value was “relatively higher cell viability” and the IC50 came to 457 mg/L (≈ 1400 µM). Further, the “Higuchi coefficient (kH)” value in series [6] came out at 7.55.

As to `CC12CC3CC(C)(C1)CC(NC(=O)/C=C/c1ccc(O)c(O)c1)(C3)C2` [MP4], in series [1], the “Mean NA/1000 Cells ± SD” value is recorded as 0.013 ± 0.003 ^a, the “Nuclear Abnormalities (NA) Total Lobbed” value is given as 4, the “Nuclear Abnormalities (NA) Total MN” value is given as 5 and the “Nuclear Abnormalities (NA) Total Notched” value was determined as 4. The “effect on cell viability / neuroprotection of niosome-loaded versus non-loaded derivative” value in series [2] is “higher effect on cell viability and a significant increase in neuroprotective properties”. Further, the “Drug Loading (%) / encapsulation efficiency” value in series [3] is no less than 85%. For the same compound, in series [4], the “increase” value was “approximately 40%” and the “cell viability versus amyloid beta only control (neuroprotective effect)” value was “significantly enhanced cell viability”. In series [5], the “cell viability at the highest concentration” value is given as “significantly reduced” and the IC50 was determined as 659 mg/L (≈ 1930 µM). Further, the “decrease of cell viability” value in series [7] is on record as roughly 40%. In addition, in series [6], the “Higuchi coefficient (kH)” value is listed as 10.82.

With `CC1=C(/C=C/C(C)=C/C=C/C(C)=C/C(=O)O)C(C)(C)CCC1` [RA Treated, all-trans retinoic acid], in series [8], the “Cell Population (%) G1 Phase” value was found to be 72.45 ± 3.78 %, the “Cell Population (%) G2 Phase” value worked out at 5.34 ± 0.17 % and the “Cell Population (%) S Phase” value is 18.65 ± 3.23 %.

These data come from paper PMC11860023, “Synthesis and Characterization of Memantine-Loaded Niosomes for Enhanced Alzheimer’s Disease Targeting” (Pharmaceutics, 2025).
